Consider 1 molecule from patent US20230054976A1, “METHODS FOR INHIBITION OF ALPHA-SYNUCLEIN mRNA USING SMALL MOLECULES” (The Scripps Research Institute, priority 2019, published 2023).

As a reminder, the Kd is the free concentration of one partner at which half of the binding sites on the other are occupied at equilibrium, for simple one-to-one binding.

Data set [1] has as its system SNCA mRNA. Kind of data set: RT-qPCR of SNCA mRNA levels in SH-SY5Y cells. Type of data set: cell-based, human. Background: Real-time PCR tracks product formation cycle by cycle.
The test system of data set [2] is α-synuclein pre-formed fibrils (PFFs) toxicity in SH-SY5Y cells. Kind of data set: Cell death assay: cytoprotection against α-synuclein pre-formed fibrils (LDH). Format: cell-based, human. The note with it: 0.25-1 μM pretreatment 24 h, 50 μg/mL PFFs 48 h. On the procedure: Cell death assay. The cytoprotective effect of Synucleozid was tested against α-synuclein PFFs. Human α-synuclein was expressed^78 and fibrillization induced as previously described^79. SH-SY5Y cells were pretreated with Synucleozid (0.25 μM to 1 μM) for 24 h and challenged with 50 μg/mL of α-synuclein PFFs for an additional 48 h in the presence of Synucleozid. Cell death was measured using LDH (Lactate Dehydrogenase) Cytotoxicity Detection Kit (Takara) according to the manufacturer's instructions and plotted either as optical density value or as percentage changes in comparison to respective controls. Monomeric α-synuclein (50 μg/mL) challenge was used as negative control for PFF cytotoxicity. Additional details are provided in the Supporting Information.
Cell death assay. The cytoprotective effect of Synucleozid was tested against α-synuclein preformed fibrils. […] To induce fibrillization of monomertic α-synuclein, the solution was subjected to shaking at 1000 rpm at 37° C. for 7 days on a thermomixer C (Eppendorf), and formation of fibrillar α-synuclein was monitored and confirmed by thioflavin-T assay (8). […] Cell death was measured using LDH (Lactate Dehydrogenase) Cytotoxicity Detection Kit (Takara) according to the manufacturer's instructions and plotted either as optical density value or as percentage changes in comparison to respective controls. […]

Data set [3] concerns the target unlabeled SNCA IRE RNA (RNA-0). Kind of data set: Competitive binding assay (2-AP), RNA-0. To be noted: read-out: competitive Kd; RNA-0, native SNCA IRE.
Description: (§1) I and I0 are the observed fluorescence intensity in the presence and absence of 2-AP RNA. Δε is the difference between the fluorescence intensity in the absence and presence of infinite 2-AP RNA. […] EC50 was calculated from Eq. (1). […] The change of fluorescence intensity was fit to Eq. (2):
(§2) θ is the percentage of 2-AP RNA bound. [RNA] is the concentration of 2-AP RNA. EC50 is the EC50 of Synucleozid determined in the assay above. [Synucleozid] is the concentration of Synucleozid. Cc is the concentration of competitive RNA. Kd is competitive dissociation constant and A is a constant.
Data set [4] concerns RNA-2 to 5 (other non-canonically paired regions replaced with base pairs). Kind of data set: Competitive binding assay (2-AP), RNA-2 to 5.
Description: as §1, §2
In data set [5] the test system is SH-SY5Y cells. Kind of data set: LDH release cytotoxicity assay. Type of data set: cell-based, human. To be noted: 0.25, 0.5 and 1 μM, 48 h. On the procedure: To assess if Synucleozid has a cytotoxic effect, SH-SY5Y cells were treated with 0.25, 0.5 and 1 μM for 48 h, and cell viability and cytotoxicity were measured using CellTiter 96 Aqueous One Solution Cell Proliferation Assay (MTS) and LDH release assay, respectively, according to the manufacturers' instructions.

Data set [6] has as its target T1, IRP-1:SNCA IRE RNA complex (Homo sapiens, UniProt P21399).
T1 construct: purchased Abnova
Kind of data set: In vitro displacement of IRPs by gel mobility shift assay, IRP-1. Format: binding. To be noted: 0.2, 1, 5 μM; pre-incubation 1-60 min. On the procedure:
In vitro displacement of IRPs by gel mobility shift assays. SNCA IRE hairpin RNA was 5′-end labeled with [γ-^32P]ATP as previously described^5. Approximately, 2 pmoles of ^32P labeled RNA per 20 μL reaction was folded in 1× Assay Buffer by heating at 65° C. for 5 min and slowly cooling to room temperature. As indicated, vehicle, Synucleozid (0.2, 1, 5 μM) or unlabeled IRE RNA (1 μM, folded as described above and used as a positive control) was added to the samples, and the samples were incubated at room temperature for varying amounts of time (1-60 min as indicated). Then, 0.5 μg IRP-1 or IRP-2 (Abnova) was added, and the samples were incubated at room temperature for an additional 30 min. An equal volume of 2× Native Gel Loading Buffer (2×TBE, 50% Glycerol, 0.025% (w/v) Bromophenol blue and Xylene cyanol FF) was added to each sample. Note, Native Gel Loading Buffer added to Synucleozid-treated samples was supplemented with the same concentration of Synucleozid as in the sample to maintain a constant concentration. IRP:IRE complexes and free IRE were separated on a native 15% polyacrylamide prepared 1×TBE supplemented with the same concentration of Synucleozid as in compound-treated samples, and imaged using a Bio-Rad PMI phosphorimager. Images were quantified with BioRad's Quantity One software.

For data set [7], the system named is ferritin 5′ UTR. Kind of data set: Luciferase reporter assay, ferritin 5′ UTR, SH-SY5Y cells. Type of data set: cell-based, human. To be noted: 1 μM.
In data set [8] the test system is tRNA. Kind of data set: Competitive binding assay (2-AP), tRNA.
Description: as §1, §2
The subject of data set [9] is 5′ UTR of SNCA mRNA. Kind of data set: In vitro translation assay (rabbit reticulocyte lysate), SNCA-5′-UTR-Luc mRNA. Format: biochemical, human. Here is the method: Luciferase assay. The effect of Synucleozid treatment on translation from various IRE containing transcripts was determined using luciferase reporter assay. SH-SY5Y cells stably expressing 5' UTR were treated with Synucleozid for 48 h, washed with PBS and lysed with Passive Lysis Buffer for 15 min at room temperature. Luciferase reporter activity in each lysate was monitored using the dual luciferase reporter assay system kit (Promega. Madison, Wis., USA) according to the manufacturer's instructions. Luminescence from firefly luciferase reaction was measured using a microplate luminometer (Wallac 1420, Perkin Elmer) at 485 nm excitation and 535 nm emission wavelengths. Firefly luciferase reaction was then quenched by adding Stop & Glo reagent, and the internal fluorescence from GFP measured at the same setting was used to normalize luciferase expression. Luciferase reporter activity was expressed as percent change compared to the respective vehicle-treated control cells. In vitro translation assay. The mRNA template for in vitro translational assays was transcribed from the pIRES-Luc-EGFP-puro and pCDH-α-syn-5'-UTR-Luc-EGFP-puro plasmids by using an in vitro transcription system (RiboMax, Promega) with forward primer: [NT] and reverse primer: [NT]. […] Translation proceeded at 30° C. for 90 min, and then luminescence was measured with a Biomek FLx800 plate reader (1.0 s integration time).

T1 sequence (P21399 whole entry, species assumed, one chain of several): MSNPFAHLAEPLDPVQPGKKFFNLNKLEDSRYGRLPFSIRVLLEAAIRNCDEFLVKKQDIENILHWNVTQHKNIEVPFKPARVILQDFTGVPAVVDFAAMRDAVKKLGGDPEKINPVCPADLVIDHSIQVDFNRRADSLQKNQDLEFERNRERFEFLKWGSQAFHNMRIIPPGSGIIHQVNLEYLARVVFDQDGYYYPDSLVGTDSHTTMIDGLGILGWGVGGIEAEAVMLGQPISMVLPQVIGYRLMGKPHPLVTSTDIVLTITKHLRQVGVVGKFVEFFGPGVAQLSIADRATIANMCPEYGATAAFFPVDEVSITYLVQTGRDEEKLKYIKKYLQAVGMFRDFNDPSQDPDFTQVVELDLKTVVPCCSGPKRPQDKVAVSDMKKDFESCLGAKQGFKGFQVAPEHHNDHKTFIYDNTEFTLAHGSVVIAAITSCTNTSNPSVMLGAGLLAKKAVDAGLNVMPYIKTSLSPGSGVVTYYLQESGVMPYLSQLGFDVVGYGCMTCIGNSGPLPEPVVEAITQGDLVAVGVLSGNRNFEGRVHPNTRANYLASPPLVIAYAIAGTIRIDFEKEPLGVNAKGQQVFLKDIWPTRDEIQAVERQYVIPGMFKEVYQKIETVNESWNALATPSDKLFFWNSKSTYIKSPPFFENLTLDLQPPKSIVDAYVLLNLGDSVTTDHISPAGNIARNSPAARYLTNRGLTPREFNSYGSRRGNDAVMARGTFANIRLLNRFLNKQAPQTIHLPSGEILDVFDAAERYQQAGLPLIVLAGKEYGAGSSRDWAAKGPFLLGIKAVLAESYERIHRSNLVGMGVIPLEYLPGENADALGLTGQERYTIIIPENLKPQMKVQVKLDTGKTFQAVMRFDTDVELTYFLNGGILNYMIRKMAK

For the molecule `N=C(N)c1ccc(Nc2ccc(-c3cc4ccc(C(=N)N)cc4[nH]3)cc2)cc1` [Synucleozid A], the “effect on steady-state levels of SNCA mRNA” value in data set [1] was “no effect”. The entries for the “cytoprotection against toxicity of α-synuclein PFFs (LDH release)” value in data set [2] and in data set [2] (listed as Synucleozid) were “mitigated the toxicity induced by PFFs in a concentration dependent manner” and “abrogates cytotoxicity”, respectively. In addition, the Kd in [3] stood at 1500 ± 300 nM. Further, the “effect of mutation on Synucleozid binding” value in data set [4] is “no effect”. The “LDH release (cytotoxicity)” value in data set [5] is on record as “no toxicity”; in data set [5] (listed as Synucleozid), “no effect”. In addition, the “effect on binding of IRP-1 to SNCA IRE RNA” value in [6] is given as “Neither Synucleozid concentration (0.2, 1, 5 μM) nor pre-incubation time (1, 5, 15, 60 min) has any significant effect”. For the same molecule, in data set [7], the “inhibition of translation, luciferase fused to ferritin 5′ UTR” value is given as about 10%. Further, in data set [8], the “competitor RNA concentration needed for recovery of 2-AP emission” value is over 100 µM. Moreover, in data set [9], the “inhibition of luciferase expression in vitro, SNCA-5′-UTR-Luc” value was “inhibited luciferase expression in a concentration-dependent manner”.
